Assay results: patent publication US6391656B2, “Assay and reagent kit for evaluation of multi-drug resistance in cells” (SOLVO Biotechnology, priority 1994, dated 2002)
≈ marks a conversion by molar mass, not a printed value. Like-named read-outs stand apart in the source and are kept apart here.

What was measured:
MRP = target: T1, MRP (Homo sapiens, UniProt P33527); assay: Inhibition of MRP-mediated calcein-AM extrusion (calcein accumulation) in S1MRP and HL60 ADR cells; assay type: cell-based
T1 construct: endogenous in cells
T1 sequence (P33527 whole entry): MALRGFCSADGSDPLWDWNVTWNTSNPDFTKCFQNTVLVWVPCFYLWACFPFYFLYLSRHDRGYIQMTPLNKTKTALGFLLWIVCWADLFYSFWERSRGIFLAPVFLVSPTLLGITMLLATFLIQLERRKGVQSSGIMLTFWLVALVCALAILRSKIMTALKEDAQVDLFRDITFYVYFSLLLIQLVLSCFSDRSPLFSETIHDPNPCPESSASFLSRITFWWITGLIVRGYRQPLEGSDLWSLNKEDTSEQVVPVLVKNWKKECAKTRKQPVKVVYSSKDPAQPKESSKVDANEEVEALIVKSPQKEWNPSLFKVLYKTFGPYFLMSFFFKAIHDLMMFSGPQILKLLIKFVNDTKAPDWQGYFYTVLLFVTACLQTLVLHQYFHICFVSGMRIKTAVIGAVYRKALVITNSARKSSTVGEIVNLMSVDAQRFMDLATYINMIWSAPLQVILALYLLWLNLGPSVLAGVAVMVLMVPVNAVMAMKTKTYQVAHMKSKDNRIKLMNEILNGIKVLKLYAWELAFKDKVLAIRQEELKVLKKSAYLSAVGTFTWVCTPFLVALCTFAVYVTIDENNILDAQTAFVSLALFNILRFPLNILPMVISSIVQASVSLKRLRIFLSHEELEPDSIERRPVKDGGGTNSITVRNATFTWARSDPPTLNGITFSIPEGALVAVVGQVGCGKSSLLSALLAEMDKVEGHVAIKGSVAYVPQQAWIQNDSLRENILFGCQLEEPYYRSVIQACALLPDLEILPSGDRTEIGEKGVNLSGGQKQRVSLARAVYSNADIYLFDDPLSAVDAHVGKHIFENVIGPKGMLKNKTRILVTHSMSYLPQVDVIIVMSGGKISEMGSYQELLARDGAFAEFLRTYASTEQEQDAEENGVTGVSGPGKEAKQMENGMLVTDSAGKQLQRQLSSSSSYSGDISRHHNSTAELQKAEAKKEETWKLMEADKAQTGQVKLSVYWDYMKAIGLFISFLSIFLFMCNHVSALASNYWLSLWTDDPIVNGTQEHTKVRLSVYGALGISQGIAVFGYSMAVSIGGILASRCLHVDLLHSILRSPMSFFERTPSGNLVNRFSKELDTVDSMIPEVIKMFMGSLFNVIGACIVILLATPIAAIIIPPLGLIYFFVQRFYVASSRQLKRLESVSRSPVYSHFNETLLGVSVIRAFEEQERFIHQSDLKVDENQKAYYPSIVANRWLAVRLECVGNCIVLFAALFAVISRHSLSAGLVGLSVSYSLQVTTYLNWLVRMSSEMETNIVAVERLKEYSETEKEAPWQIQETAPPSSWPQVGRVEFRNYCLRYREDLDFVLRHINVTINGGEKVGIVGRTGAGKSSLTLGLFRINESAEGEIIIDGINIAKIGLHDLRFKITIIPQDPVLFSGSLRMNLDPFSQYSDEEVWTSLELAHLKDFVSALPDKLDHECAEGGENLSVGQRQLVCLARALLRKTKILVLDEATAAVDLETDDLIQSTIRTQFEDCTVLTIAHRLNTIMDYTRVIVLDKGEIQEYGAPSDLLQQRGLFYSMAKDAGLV

MDR1 [1] = target: T2, MDR1 (Homo sapiens, UniProt P08183); assay: Inhibition of MDR1-mediated calcein-AM extrusion (calcein accumulation) in 3T3 MDR and K562 MDR cells
T2 sequence (P08183 whole entry): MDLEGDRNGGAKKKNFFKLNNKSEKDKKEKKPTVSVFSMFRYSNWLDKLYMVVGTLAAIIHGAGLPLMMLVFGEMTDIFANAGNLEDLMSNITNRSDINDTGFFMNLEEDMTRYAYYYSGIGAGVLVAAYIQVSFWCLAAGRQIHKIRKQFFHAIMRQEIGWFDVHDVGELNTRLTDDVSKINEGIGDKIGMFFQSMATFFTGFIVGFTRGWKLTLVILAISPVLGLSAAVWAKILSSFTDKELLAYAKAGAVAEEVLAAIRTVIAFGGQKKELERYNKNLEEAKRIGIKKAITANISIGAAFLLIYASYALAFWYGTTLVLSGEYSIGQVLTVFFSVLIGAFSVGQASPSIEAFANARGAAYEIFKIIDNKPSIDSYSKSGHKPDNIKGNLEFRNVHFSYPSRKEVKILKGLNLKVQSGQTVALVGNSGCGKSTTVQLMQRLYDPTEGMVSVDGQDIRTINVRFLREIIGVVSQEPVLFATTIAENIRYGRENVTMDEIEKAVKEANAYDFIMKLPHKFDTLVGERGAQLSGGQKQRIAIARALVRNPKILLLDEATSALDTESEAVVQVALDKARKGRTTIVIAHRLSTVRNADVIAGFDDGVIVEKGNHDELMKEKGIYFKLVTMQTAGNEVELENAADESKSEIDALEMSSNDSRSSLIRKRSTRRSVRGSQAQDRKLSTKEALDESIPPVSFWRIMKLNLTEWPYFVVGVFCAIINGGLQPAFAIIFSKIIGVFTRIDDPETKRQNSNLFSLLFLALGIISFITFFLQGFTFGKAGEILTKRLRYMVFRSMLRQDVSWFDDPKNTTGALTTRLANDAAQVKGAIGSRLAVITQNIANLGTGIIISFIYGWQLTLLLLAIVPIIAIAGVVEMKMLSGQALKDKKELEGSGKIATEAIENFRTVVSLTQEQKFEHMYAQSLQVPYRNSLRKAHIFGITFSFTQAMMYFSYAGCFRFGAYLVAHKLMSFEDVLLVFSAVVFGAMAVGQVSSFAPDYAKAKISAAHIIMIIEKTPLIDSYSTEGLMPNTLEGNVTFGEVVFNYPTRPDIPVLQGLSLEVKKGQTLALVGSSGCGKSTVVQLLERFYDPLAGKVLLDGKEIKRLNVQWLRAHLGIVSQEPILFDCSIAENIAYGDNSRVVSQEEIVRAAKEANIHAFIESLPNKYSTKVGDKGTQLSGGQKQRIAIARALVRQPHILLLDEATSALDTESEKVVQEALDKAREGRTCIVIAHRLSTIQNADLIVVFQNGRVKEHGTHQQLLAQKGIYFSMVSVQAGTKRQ

P388-C cells [2] = assay: Cytotoxicity assay, adriamycin resistance; assay type: cell-based, murine; conditions: Mus musculus; P388-C control cell line
Description: (§1) Elapsed time is shown on the abscissa and fluorescence intensity in arbitrary units is shown on the ordinate.

P388-MDRa cells = assay: Cytotoxicity assay, adriamycin resistance; assay type: cell-based, murine; conditions: Mus musculus; P388-MDRa cell line
Description: as §1

P388-MDRb cells = assay: Cytotoxicity assay, adriamycin resistance; assay type: cell-based, murine; conditions: Mus musculus; P388-MDRb cell line
Description: as §1

K562-mMDR cells = assay: Cytotoxicity assay, 3 days culture with adriamycin; assay type: cell-based; conditions: Homo sapiens, 72 h, K562-mMDR cell line (inactive mutant MDR protein), read-out: Resistance to Adriamycin (IC50, ng/ml)
Method: (§2) Cells were cultured for 3 days under standard conditions in the presence of 0.1-100 ng/ml adriamycin. The number of cells in the different cell cultures is given as the percentage of the number of cells counted in the culture not treated with the drug. As it can well be seen on FIG. 5, the really expressed drug resistance is in much better accordance with the results obtained by the method of the invention based on the measurement of calcein accumulation than with those obtained by the traditional immunological measurement of MDR expression.
(§3) Cells were cultured for 3 days under standard conditions in the presence of 0.1-100 ng/ml adriamycin. The number of cells in the different cell cultures is given as the percentage of the number of cells counted in the culture not treated with the drug.

K562-C cells = assay: Cytotoxicity assay, 3 days culture with adriamycin; assay type: cell-based; conditions: Homo sapiens, 72 h, K562-C cell line, read-out: Resistance to Adriamycin (IC50, ng/ml)
Method: as §2, §3

K562-MDR cells = assay: Cytotoxicity assay, 3 days culture with adriamycin; assay type: cell-based; conditions: Homo sapiens, 72 h, K562-MDR cell line, read-out: Resistance to Adriamycin (IC50, ng/ml)
Method: as §2, §3

MDR1 [3] = target: T2, MDR1
KB3 cells = assay: Calcein accumulation by flow cytometry in control cells; conditions: 100 μmol/l verapamil pretreatment 5 min, control cell line KB3
Method: In the experiments shown in FIG. 2 a drug sensitive (control, cell line KB3) and three increasingly multi-drug resistant (cell lines KB-V1a-c) human epidermoid carcinoma cell lines were examined.
As all the specimens were incubated for the same time (10 min) with calcein-AM, the measure of the accumulation of calcein detected exactly after 10 minutes can be taken as the rate of calcein accumulation.

P388-C cells [4] = assay: Calcein accumulation by fluorescent spectrophotometry in control cells; assay type: cell-based, murine; conditions: 100 μmol/l verapamil
Description: as §1

MDR dependent ATPase = MDR dependent ATPase (Homo sapiens, UniProt P08183); conditions: cited from earlier work
Sequence of MDR dependent ATPase (P08183 whole entry): as above

[5] = inhibition of MRP-mediated calcein-AM extrusion, S1MRP and HL60 ADR cells, range of at least 3 independent experiments with each cell line, read-out: IC50 MRP
[6] = read-out: IC50 MDR1, inhibition of MDR1-mediated calcein-AM extrusion, 3T3 MDR and K562 MDR cells, range of at least 3 independent experiments, > = 50% inhibition not achieved (a solubility problem, b esterase inhibition)

| Compound | IC50 (MRP; [5]) | IC50 (MDR1 [1]) | further results |
| --- | --- | --- | --- |
| O=[N+]([O-])c1ccc(O)c([N+](=O)[O-])c1 [2,4-DNP] | 30 to 50 µM |  | IC50 (MDR1 [1]; [6]): > 200 µM |
| COc1cccc2c1C(=O)c1c(O)c3c(c(O)c1C2=O)C[C@@](O)(C(=O)CO)C[C@@H]3O[C@H]1C[C@H](N)[C@H](O)[C@H](C)O1 [Adriamycin] |  |  | IC50 (P388-C cells [2]): 0.5 ng/mL (≈ 0.92 nM); IC50 (P388-MDRa cells): 4 ng/mL (≈ 7.36 nM); IC50 (P388-MDRb cells): 9 ng/mL (≈ 16.6 nM); IC50 (K562-mMDR cells): 0.35 ng/mL (≈ 0.644 nM); IC50 (K562-C cells): 0.7 ng/mL (≈ 1.29 nM); IC50 (K562-MDR cells): 3.1 ng/mL (≈ 5.7 nM) |
| CCc1oc2ccccc2c1C(=O)c1cc(Br)c(O)c(Br)c1 [Benzbromarone] |  | > 500 µM |  |
| O=C1OC(c2ccc(O)c(S(=O)(=O)O)c2)(c2ccc(O)c(S(=O)(=O)O)c2)c2c(Br)c(Br)c(Br)c(Br)c21 [Bromosulfophthalein] | 100 to 150 µM |  | IC50 (MDR1 [1]; [6]): > 1000 µM |
| N#CC(C#N)=NNc1cccc(Cl)c1 [CCCP] | 10 to 30 µM |  | IC50 (MDR1 [3]): > 200 µM |
| O=C(O)CCCc1ccc(N(CCCl)CCCl)cc1 [Chlorambucil] |  | > 500 µM | IC50 (MRP): 30 to 50 µM |
| Clc1ccc(COC(Cn2ccnc2)c2ccc(Cl)cc2Cl)cc1 (centres unmarked) [Econazole] | 3 to 10 µM | 1 to 3 µM |  |
| C=C(CC)C(=O)c1ccc(OCC(=O)O)c(Cl)c1Cl [Ethacrynic acid] | 20 to 30 µM | > 800 µM |  |
| O=c1c(-c2ccc(O)cc2)coc2cc(O)cc(O)c12 [Genistein] | 150 to 200 µM | > 1000 µM |  |
| COc1ccc2c(c1)c(CC(=O)O)c(C)n2C(=O)c1ccc(Cl)cc1 [Indomethacin] | 10 to 20 µM | > 800 µM |  |
| C[CH2][Hg][S]c1ccccc1C(=O)[O-].[Na+] [Merthiolate] | 10 to 20 µM |  | IC50 (MDR1 [1]; [6]): > 200 µM |
| CCN1C(=O)C=CC1=O [NEM, N-ethylmaleimide] | 0.2 to 0.5 µM | > 50 µM |  |
| CC[C@H]1/C=C/C=C/C[C@@H](C)[C@H](O)[C@@](C)(O)C(=O)[C@@H](C)[C@H](O)[C@@H](C)C(=O)[C@@H](C)[C@H](O)[C@@H](C)/C=C/C(=O)O[C@@H]2[C@H](C)[C@H](CC1)O[C@]1(CC[C@H](C)[C@H](C[C@@H](C)O)O1)[C@H]2C [Oligomycin] | 1 to 2 µM | 1 to 2 µM |  |
| CCCN(CCC)S(=O)(=O)c1ccc(C(=O)O)cc1 [Probenacid, Probenecid] | 500 to 800 µM | > 2000 µM |  |
| CCCCC[C@H](O)/C=C/[C@H]1C=CC(=O)[C@@H]1CCCCCCC(=O)O [Prostaglandin A1] | 3 to 5 µM |  | IC50 (MDR1 [1]; [6]): > 100 µM |
| C=C[C@H]1C[N@@]2CC[C@H]1C[C@H]2[C@H](O)c1ccnc2ccc(OC)cc12 [Quinine] | 50 to 100 µM |  |  |
| O=C1C(CC[S+]([O-])c2ccccc2)C(=O)N(c2ccccc2)N1c1ccccc1 (centres unmarked) [Sulfinpyrazone] | 300 to 500 µM | > 2000 µM |  |
| CC/C(=C(\c1ccccc1)c1ccc(OCCN(C)C)cc1)c1ccccc1 [Tamoxifen] | 3 to 6 µM |  |  |
| COc1ccc(CCN(C)CCCC(C#N)(c2ccc(OC)c(OC)c2)C(C)C)cc1OC (centres unmarked) [Verapamil] |  |  | effect on calcein accumulation (KB3 cells): no detectable effect; effect on rate of calcein accumulation (P388-C cells [4]): not influenced |
| CC[C@]1(O)C[C@@H]2CN(CCc3c([nH]c4ccccc34)[C@@](C(=O)OC)(c3cc4c(cc3OC)N(C)[C@H]3[C@@](O)(C(=O)OC)[C@H](OC(C)=O)[C@]5(CC)C=CCN6CC[C@]43[C@@H]65)C2)C1 [Vinblastine] | 2 to 5 µM |  |  |
| calcein-acetoxy-methylester [calcein-AM] |  |  | Ka, activation of the MDR dependent ATPase (MDR dependent ATPase): ≤ 1 µmol/L |
